Where two headings read alike, the source gives them in different places. Each block holds one compound with its values, some of them ahead of it.
Tests used:
[1] = biological target: T1, STS isolated from the human placenta (Homo sapiens, UniProt P08842); assay: radioisotope enzymatic assay with STS isolated from human placenta and [3H]E1S; format: biochemical; settings: 0.5 μM inhibitor concentration, substrate [3H]E1S, 3 nM, triplicate; for remaining activity at 0.5 µM: read-out: residual STS activity [%]
T1 construct: radioisotope enzymatic assay using STS isolated from the human placenta; from tissue; host or cells: human placenta
T1 sequence (P08842 22-583): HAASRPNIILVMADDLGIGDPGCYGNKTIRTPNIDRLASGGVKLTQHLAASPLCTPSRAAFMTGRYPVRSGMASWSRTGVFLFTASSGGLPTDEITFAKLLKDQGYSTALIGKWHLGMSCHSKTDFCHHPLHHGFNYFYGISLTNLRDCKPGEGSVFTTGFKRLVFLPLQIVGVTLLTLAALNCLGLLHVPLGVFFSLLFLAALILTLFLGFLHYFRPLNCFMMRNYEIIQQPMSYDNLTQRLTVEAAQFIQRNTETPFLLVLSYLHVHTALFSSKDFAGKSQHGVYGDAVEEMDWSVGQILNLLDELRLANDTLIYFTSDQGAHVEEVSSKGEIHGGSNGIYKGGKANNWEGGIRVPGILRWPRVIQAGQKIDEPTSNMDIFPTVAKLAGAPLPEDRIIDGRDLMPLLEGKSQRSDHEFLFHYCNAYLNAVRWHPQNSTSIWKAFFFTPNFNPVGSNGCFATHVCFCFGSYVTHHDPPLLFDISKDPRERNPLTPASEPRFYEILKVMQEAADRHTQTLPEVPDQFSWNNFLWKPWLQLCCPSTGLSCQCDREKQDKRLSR
Protocol: The inhibitory potency of the synthesized compounds was examined in two ways, including an enzymatic assay and the radioisotope cellular test. The enzymatic assay was performed using the STS enzyme isolated from human placenta and using radiolabeled [^3H]E1S as a substrate.
The total volume of the reaction mixture was 100 μL. […] After incubation, the reaction mixture (90 μL) was collected from each well, and the product formed by STS hydrolysis was extracted with toluene (0.5 mL). STS activity was measured using a MicroBeta radioluminometer (PerkinElmer). Enzymatic assays were carried out in triplicate.

[2] = biological target: T2, STS in MCF-7 cells (Homo sapiens, UniProt P08842); assay: radioisotope cellular assay with [3H]E1S in MCF-7 cells; format: cell-based; settings: for remaining activity at 0.1 µM / remaining activity at 0.01 µM / remaining activity at 0.001 µM: MCF7, 20 h; for remaining activity at 0.1 µM: read-out: residual STS activity [%] 100 nM; for remaining activity at 0.01 µM: read-out: residual STS activity [%] 10 nM; for remaining activity at 0.001 µM: read-out: residual STS activity [%] 1 nM
T2 construct: The radioisotope cellular assay was performed using the MCF-7 cell line; endogenous in cells; host or cells: MCF-7
T2 sequence (P08842 22-583): T1 sequence (P08842 22-583)
Protocol: All compounds were initially tested for their in cell inhibitory action at a 100 nM concentration.
The inhibitory potency of the synthesized compounds was examined in two ways, including an enzymatic assay and the radioisotope cellular test. […] The radioisotope cellular assay was performed using the MCF-7 cell line in the presence of radiolabeled [^3H]E1S.
The evaluation of the inhibitory effect of each compound with breast cancer cells was performed using a previously described method (27) with some modifications. MCF-7 cells were maintained in Dulbecco’s modified Eagle medium supplemented with 10% fetal bovine serum and cultured in the above medium until 80% confluence. […] After incubation, the medium (0.45 mL) was collected from each well, and the product formed by STS hydrolysis was extracted with toluene (4 mL). STS activity was measured using a MicroBeta radioluminometer (PerkinElmer). Assays with MCF-7 cells were carried out in triplicate.

[3] = format: in vivo; settings: Table S1, MTD study, 50 mg/kg
Protocol: The mice were thus weighed, and their general health was observed. […] At the end of the study, the mice were sacrificed by dislocation of the cervical vertebrae, and the internal organs were examined macroscopically.
The mice were weighed, and their general health was observed. […] At the end of the MTD study, the autopsy was performed, and the internal organs (liver, kidney, and spleen) were weighed and macroscopically assessed.

[4] = test system: 67NR mouse mammary tumor cells; assay: antitumor activity in 67NR orthotopic mouse breast carcinoma model; format: in vivo, BALB/c mice; settings: 50 mg/kg b.w. per os
Protocol: The tumor volume (TV) and body weight were measured three times a week. Results for individual groups are reported in Figure S5, Supporting Information. Based on TV data, the tumor growth inhibition (TGI) was calculated for groups that received compounds and compared to that of the control group. […] The body weight of the treated animals was monitored during the study, and the body weight change (BWC) index was calculated (Figure 4). […] Body weight loss was observed between D2 and D11 and reached 4.5% at most.
The growth of tumors has been observed.

[5] = blood morphology, blood biochemistry and organ weights of mice with 67NR tumor
Protocol: At the end of the study, the autopsy of the animals was performed: blood was collected for further analyses of the morphology (Table S2, Supporting Information) and biochemistry (Table S3 and Figure S6, Supporting Information) and for the determination of the plasma estradiol level using the ELISA method.
Mice were injected orthotopically (in the mammary gland fat pad) with 67NR mouse mammary tumor cells derived from in vitro culture (1.5 × 10^5 cells/0.05 mL Hanks fluid/mouse). The growth of tumors has been observed. […] Animals were observed during the next 17 days and euthanized. During observation, body weight and tumor growth were monitored three times a week. The volume of the tumors was calculated according to the following formula: TV = a^2·b/2 [mm^3], (where: a—width and b—length of the tumor). Blood, tumor tissue, and liver were harvested during autopsy for further analyses. Blood aliquots (about 500 μL) were collected in EDTA containing vials for morphology analysis (Mythic 18 analyzer, Orphee), and then, the plasma was collected (centrifuged at 2500g for 15 min at 4 °C within 1 h after collection) for biochemical parameter analysis (Cobas c111, Roche).

[6] = MCF-7 cells, 100 nM inhibitor, substrate [3H]E1S, 3 nM, triplicate
[7] = MCF-7 cells, 10 nM inhibitor, substrate [3H]E1S, 3 nM, triplicate
[8] = MCF-7 cells, 1 nM inhibitor, substrate [3H]E1S, 3 nM, triplicate
[9] = Table S2, mice with 67NR tumor, 50 mg/kg
[10] = Table S3, plasma, mice with 67NR tumor, 50 mg/kg per os, N=9

- remaining activity at 0.1 µM [2, 6]: < 5%
SMILES: NS(=O)(=O)Oc1ccc(-c2cn(-c3ccc(C(F)(F)F)cc3)nn2)cc1 [5j]

- remaining activity at 0.01 µM [2, 7]: 59.9 ± 3.29%
SMILES: NS(=O)(=O)Oc1ccc(-c2cn(-c3cccc(C(F)(F)F)c3)nn2)cc1 [5m]

- remaining activity at 0.01 µM [2, 7]: 60.2 ± 2.7%
- remaining activity at 0.1 µM [2, 6]: 1.5 ± 0.05%
SMILES: NS(=O)(=O)Oc1ccc(-c2cn(-c3ccc(F)cc3)nn2)cc1 [5a]

- remaining activity at 0.1 µM [2, 6]: 14.7 ± 0.88%
SMILES: NS(=O)(=O)Oc1ccc(-c2cn(-c3cc(C(F)(F)F)cc(C(F)(F)F)c3)nn2)cc1 [5d]

- remaining activity at 0.001 µM [2, 8]: 71.8 ± 4.67%
- remaining activity at 0.01 µM [2, 7]: 9.5 ± 0.48%
- remaining activity at 0.1 µM [2, 6]: 1%
- residual STS activity [%] 100 nM [2, 6]: 1.0%
SMILES: NS(=O)(=O)Oc1ccc(-c2cn(-c3ccc(OC(F)(F)F)cc3)nn2)cc1 [5i]

- remaining activity at 0.01 µM [2, 7]: 48.2 ± 3.37%
SMILES: NS(=O)(=O)Oc1ccc(-c2cn(-c3ccc(F)cc3C(F)(F)F)nn2)cc1 [5h]

- remaining activity at 0.1 µM [2, 6]: 3 ± 0.14%
SMILES: NS(=O)(=O)Oc1ccc(-c2cn(-c3ccc(F)c(F)c3)nn2)cc1 [5f]

- remaining activity at 0.1 µM [2, 6]: 15.5 ± 0.93%
SMILES: NS(=O)(=O)Oc1ccc(-c2cn(-c3ccccc3OC(F)(F)F)nn2)cc1 [5k]

- remaining activity at 0.1 µM [2, 6]: 5.5 ± 0.3%
SMILES: NS(=O)(=O)Oc1ccc(-c2cn(-c3ccccc3C(F)(F)F)nn2)cc1 [5c]

- remaining activity at 0.01 µM [2, 7]: 46.6 ± 1.63%
- remaining activity at 0.1 µM [2, 6]: 1.5 ± 0.05%
SMILES: NS(=O)(=O)Oc1ccc(-c2cn(-c3ccccc3)nn2)cc1 [5b]

Further lines, the compound ahead of its results:

SMILES: NS(=O)(=O)Oc1ccc(-c2cn(-c3cc(Br)cc(Br)c3)nn2)cc1 [4l, 4-(1-(3,5-Dibromophenyl)-1H-1,2,3-triazol-4-yl)phenyl Sulfamate]
- remaining activity at 0.5 µM [1]: 28.9 ± 1.44%
- remaining activity at 0.1 µM [2, 6]: 8.3 ± 0.4%
- melting point: 228 to 229 °C (dec.)

SMILES: Cc1cc(=O)oc2cc(OS(N)(=O)=O)ccc12 [COUMATE, reference compound]
- remaining activity at 0.1 µM [2]: 51.8%

SMILES: NS(=O)(=O)Oc1ccc(-c2cn(-c3cccc([N+](=O)[O-])c3)nn2)cc1 [4k, 4-(1-(3-Nitrophenyl)-1H-1,2,3-triazol-4-yl)phenyl Sulfamate]
- remaining activity at 0.5 µM [1]: 28.9 ± 1.44%
- remaining activity at 0.1 µM [2, 6]: 5.9 ± 0.32%
- melting point: 225 to 226 °C (dec.)

SMILES: NS(=O)(=O)Oc1ccc(-c2cn(-c3cccc(Br)c3)nn2)cc1 [4c, 4-(1-(3-Bromophenyl)-1H-1,2,3-triazol-4-yl)phenyl Sulfamate]
- remaining activity at 0.5 µM [1]: 24.1 ± 1.2%
- remaining activity at 0.001 µM [2, 8]: 79.4 ± 4.76%
- remaining activity at 0.01 µM [2, 7]: 39.9 ± 2.19%
- remaining activity at 0.1 µM [2, 6]: 2.1 ± 0.07%
- melting point: 212 to 213 °C (dec.)

SMILES: COc1cccc(-n2cc(-c3ccc(OS(N)(=O)=O)cc3)nn2)c1 [4g, 4-(1-(3-Methoxyphenyl)-1H-1,2,3-triazol-4-yl)phenyl Sulfamate]
- remaining activity at 0.5 µM [1]: 43.4 ± 2.17%
- remaining activity at 0.1 µM [2, 6]: 6.8 ± 0.24%
- melting point: 210 to 212 °C (dec.)

SMILES: CC(C)c1cccc(-n2cc(-c3ccc(OS(N)(=O)=O)cc3)nn2)c1 [4j, 4-(1-(3-Isopropylphenyl)-1H-1,2,3-triazol-4-yl)phenyl Sulfamate]
- remaining activity at 0.5 µM [1]: 18.1 ± 0.9%
- remaining activity at 0.01 µM [2, 7]: 73.4%
- remaining activity at 0.1 µM [2, 6]: 2.4 ± 0.12%
- melting point: 202 to 204 °C (dec.)

SMILES: CCc1cccc(-n2cc(-c3ccc(OS(N)(=O)=O)cc3)nn2)c1 [4i, 4-(1-(3-Ethylphenyl)-1H-1,2,3-triazol-4-yl)phenyl Sulfamate]
- remaining activity at 0.5 µM [1]: 14.5 ± 0.73%
- remaining activity at 0.1 µM [2, 6]: 2.6 ± 0.08%
- melting point: 223 to 225 °C (dec.)

SMILES: Cc1cc(C)cc(-n2cc(-c3ccc(OS(N)(=O)=O)cc3)nn2)c1 [4f, 4-(1-(3,5-Dimethylphenyl)-1H-1,2,3-triazol-4-yl)phenyl Sulfamate]
- remaining activity at 0.5 µM [1]: 52.5 ± 2.62%
- remaining activity at 0.1 µM [2, 6]: 10.2 ± 0.61%

SMILES: Cc1cccc(-n2cc(-c3ccc(OS(N)(=O)=O)cc3)nn2)c1 [4e, 4-(1-(3-Methylphenyl)-1H-1,2,3-triazol-4-yl)phenyl Sulfamate]
- remaining activity at 0.5 µM [1]: 34.2 ± 1.71%
- remaining activity at 0.1 µM [2, 6]: 3.1 ± 0.12%
- melting point: 212 to 213 °C (dec.)

SMILES: COc1cc(OC)cc(-n2cc(-c3ccc(OS(N)(=O)=O)cc3)nn2)c1 [4h, 4-(1-(3,5-Dimethoxyphenyl)-1H-1,2,3-triazol-4-yl)phenyl Sulfamate]
- remaining activity at 0.5 µM [1]: 55.1 ± 2.76%
- remaining activity at 0.1 µM [2, 6]: 34.3 ± 1.88%
- melting point: 225 to 227 °C (dec.)

SMILES: NS(=O)(=O)Oc1ccc(-c2cn(-c3ccc(F)c(F)c3F)nn2)cc1 [5e]
- remaining activity at 0.001 µM [2]: 38.9%
- remaining activity at 0.01 µM [2]: 24.2 ± 1.45%
- remaining activity at 0.1 µM [2]: 1 ± 0.04%
- IC50 ([2]; MCF-7 cells, substrate [3H]E1S, 3 nM): 2.95 ± 0.13 nM
- GRAN [3]: 11,1±1,9%
- HCT [3]: 42,3±1,3%
- HGB [3]: 15,7±0,5 g/dL
- LIMF [3]: 85,6±2,6%
- MCH [3]: 17,1±0,2 pg
- MCHC [3]: 37,2±0,7 g/dL
- MCV [3]: 46±0,5 fL
- MON [3]: 3,3±1%
- PLT [3]: 511±30 10x3/uL
- RBC [3]: 9,2±0,4 10x6/uL
- RDW [3]: 17,6±0,7%
- WBC [3]: 4,0±0,4 10x3/uL
- body weight of treated tumor-bearing mice (observation) [4]: An increase in body weight was observed
- tumor growth inhibition (TGI) ([4]; 5 days a week, 67NR tumor, N = 9, vs control group): did not show any significant effect
- mice responded to the treatment ([4]; nine mice/group): 6 mice poorly responded to the treatment
- mice with much larger tumor than the mean control volume ([4]; nine mice/group): 2 mice
- mice with tumor volume reduced by approx. 50% compared to the TV control ([4]; nine mice/group): 1 mice
- HCT [5, 9]: 34,6±1,6%
- HGB [5, 9]: 13,4±0,6 g/dL
- MCH [5, 9]: 18,2±0,4 pg
- MCHC [5, 9]: 38,6±0,5 g/dL
- MCV [5, 9]: 47±1,2 fL
- MPV [5, 9]: 4,9±0,1 fL
- PCT [5, 9]: 0,280±0,04%
- PDW [5, 9]: 25,6±3,8 fL
- RBC [5, 9]: 7,4±0,4 x106/uL
- RDW [5, 9]: 19,2±1,2%
- WBC [5, 9]: 6,1±2,1 x103/uL
- ALT [5, 10]: 31,1±10,7 U/L
- AST [5, 10]: 97,4±24,9 U/L
- creatinine [5, 10]: 5,33±1,21 umol/L
- urea [5, 10]: 7,65±0,54 mmol/L

SMILES: NS(=O)(=O)Oc1ccc(-c2cn(-c3cccc(I)c3)nn2)cc1 [4d, 4-(1-(3-Iodophenyl)-1H-1,2,3-triazol-4-yl)phenyl Sulfamate]
- residual STS activity [%] [1]: 13.23 ± 0.66%
- remaining activity at 0.5 µM [1]: 13.2%
- remaining activity at 0.001 µM [2, 8]: 67.5 ± 3.71%
- remaining activity at 0.01 µM [2, 7]: 31.8 ± 1.59%
- remaining activity at 0.1 µM [2, 6]: 2 ± 0.11%
- melting point: 228 to 229 °C (dec.)

SMILES: NS(=O)(=O)Oc1ccc(-c2cn(-c3cc(I)cc(I)c3)nn2)cc1 [4m, 4-(1-(3,5-Diiodophenyl)-1H-1,2,3-triazol-4-yl)phenyl Sulfamate]
- residual STS activity [%] [1]: 11.78 ± 0.59%
- remaining activity at 0.5 µM [1]: 11.8%
- remaining activity at 0.1 µM [2, 6]: 18.7%
- melting point: 213 to 216 °C (dec.)
